Entries after “also recorded” stand apart in the source; their conditions may differ.
Tests used:
Type in all cases: cell-based, human
[1] = system: endogenous proteins of HEK293T cells; test: In-cell proteome-wide selectivity of clickable probes; settings: 10 μM probe, 1 h, live HEK293T cells expressing BRD4(1)^L94C or BRD4(1)^WT
Procedure: (§1) To evaluate proteome-wide selectivity of the clickable probes, HEK293T cells transiently expressing BRD4(1)^L94C or BRD4(1)^WT were incubated with 10 μM of probes 28–30 and 42 for 1 h before the cells were lysed and the CuAAC reaction with TAMRA-PEG3-azide was conducted (Figure 7A). […]
(§2) reaction mix was taken and 8 µL of Lamelli buffer added, and the samples denatured by heating at 95 °C for 10 min. Samples were separated by gel electrophoresis on NuPAGE™ 4–12%, Bis-Tris precast polyacrylamide gels (Thermofisher). Following electrophoresis, gels were stained for 15 min with InstantBlueTM Coomasie® stain (Abcam), destained, and imaged using Bio-rad molecular imager.
(§3) Bio-rad Image Lab 6.1 was used to process the data.
(§4) In-cell target engagement
(§5) In-cell labeling by clickable probes
(§6) Transfected HEK293T cells at ~90% confluency were incubated for 1 h with a DMSO control (0.5% DMSO final concentration) or a click probe (10 µM, 0.5% DMSO final concentration) diluted in Opti- […]
Cells were then harvested and lysed using the previously described protocol above. The resulting cell lysates were diluted to 2 mg/mL using the previously described protocol above. […]
(§7) Gels were imaged for fluorescence using Bio-rad molecular imager and then stained for 15 min with InstantBlueTM Coomasie® stain (Abcam), destained, and imaged using Bio-rad molecular imager. […]

[2] = system: T1, BRD4(1)^L94C transiently expressed in HEK293T cells; test: In-cell labeling by clickable probes, in-gel fluorescence
T1 construct: the L94C mutation in the first bromodomain of BRD4 [BRD4(1)]; StrepII; expressed in transfected cells; host or cells: HEK293T
Procedure: as §1, §2, §3, §4, §5, §6
Cells were then harvested and lysed using the previously described protocol above. The resulting cell lysates were diluted to 2 mg/mL using the previously described protocol above.
Cell lysates (50 µL) were then incubated with TAMRA-PEG3-Azide (200 µM), TCEP·HCl (2 mM), TBTA (200 µM), and CuSO4 (2 mM), for 1 h at rt in the dark. Samples were then prepared and separated by gel electrophoresis using the previously described protocol above.
Gels were imaged for fluorescence using Bio-rad molecular imager and then stained for 15 min with InstantBlueTM Coomasie® stain (Abcam), destained, and imaged using Bio-rad molecular imager.
Typically, the very bottom of the gel was removed prior to imaging due to residual, unreacted, TAMRA-PEG3-Azide, which would cause oversaturation and poor image quality. […]
MEM media. Cells were then harvested and lysed using the previously described protocol above. […]

[3] = system: T2, StrepII-tagged BRD4(1)^L94C or BRD4(1)^WT in HEK293T cells; test: Immunoprecipitation of StrepII-tagged bromodomains after in-cell labeling; settings: 10 µM probe, 1 h, anti-StrepII pull-down, in-gel fluorescence
T2 construct: the L94C mutation in the first bromodomain of BRD4 [BRD4(1)]; StrepII; expressed in transfected cells; host or cells: HEK293T
Procedure: Compound engagement with BRD4(1)^L94C was further validated by using an immunoprecipitation (IP) assay (Figure S22). Here, transfected HEK293T cells expressing StrepII-tagged BRD4(1)^L94C or StrepII-tagged BRD4(1)^WT were incubated with compound 42 before being lysed. The StrepII-tagged bromodomains were then pulled down using anti-StrepII antibodies, and the samples were separated by SDS-PAGE for analysis. […]
as §2, §3, §4
In-cell labeling by clickable probes […]
as §7
Transfected HEK293T cells at ~90% confluency were incubated for 30 min with a DMSO control or varying concentrations of OXFBD04 diluted in Opti-MEM media. […] Cells were then harvested, processed, and analysed using the previously described protocol above. […]

Row | Compound | Proteome-wide selectivity / off-target binding to endogenous proteins [1] | In-cell BRD4(1)^L94C engagement (fluorescent band ∼49 kDa) ([2]; 10 μM probe, 1 h) | Dose dependence of in-cell BRD4(1)^L94C labeling ([2]; 1 to 10 μM) | Time dependence of in-cell BRD4(1)^L94C labeling ([2]; time course 0.5–4 h) | Engagement of StrepII-tagged BRD4(1)^L94C versus BRD4(1)^WT by immunoprecipitation [3]
1 | C#CCOc1ccc(-c2c(C)noc2NC(=O)C=C)cc1 [Compound 30] | low cellular selectivity | highest level of BRD4(1)^L94C engagement |  |  | 
2 | C#CCOc1cc(NC(=O)C=C)ccc1N1CCCC1=O [Compound 42] | exquisite proteome-wide selectivity; also recorded: almost complete selectivity |  | dose dependent | time-dependent | selective engagement of BRD4(1)^L94C

Source: publication PMC10660337, “Mutate and Conjugate: A Method to Enable Rapid In-Cell Target Validation” (ACS Chemical Biology, 2023)
